Experimental data: patent publication US20100204141A1, “USE OF BPP-B AS A THERAPEUTIC AGENT” (priority 2007, published 2010)
Square brackets hold non-standard residues; d marks the D form. Peptide text beside a SMILES is read from it. pGlu = O=C1CC[C@@H](C(=O)O)N1

Tests used:
[1] = test system: HepG2-2.2.15 cells; test: Cytotoxicity (dye uptake cell viability) in the HBV assay; assay type: cell-based; settings: test peptide 10 micrograms per ml
[2] = test system: HIV-1IIIB; test: HIV-1 antiviral assay (CPE reduction, MTS) in CEM-SS cells; settings: test peptide 10 micrograms per ml, 6 days post-infection
[3] = test system: CEM-SS cells; test: Cytotoxicity (MTS cell viability) in the HIV-1 assay; settings: CEM-SS cells; test peptide 10 micrograms per ml; MTS
[4] = Cytotoxicity testing in MRC-5 cells (CellTiter 96); assay type: cell-based, human; settings: human, MRC-5 cells (embryonal lung fibroblasts), 6 days incubation, read-out: % Cell viability
Protocol: (§1) For cytotoxicity testing, MRC-5 cells were seeded at 2,500 cells/well in 96 well plates using growth medium. […] The following day, peptide was added and tested in duplicates. After a 6 days incubation period, cell viability was measured using CellTiter 96 Solution (Promega). Plates were incubated for additional 4 hours at 37° C.

[5] = test system: Pseudomonas aeruginosa; test: Pseudomonas aeruginosa assay; assay type: cell-based; settings: Pseudomonas aeruginosa growth; peptide 10 micrograms per ml
Protocol: (§2) The antibacterial assay was conducted using clear, U-bottom 96-well microtiter plates. Cation-adjusted Mueller-Hinton Broth (MHB) was used for testing Pseudomonas aeruginosa. The peptide of the invention (0.1 ml of each—10 micrograms per ml—) was dispensed into wells in duplicate. Then the wells were inoculated with 5×10^5 CFU/mL Pseudomonas aeruginosa in 0.1 ml volume. For control purposes, each plate included 4 wells containing media without bacterial inoculum and 4 wells containing medium with inoculum but without peptide. The plates were incubated for 12 h at 37° C., and read visually 18-24 hours post-incubation. Growth control of Pseudomonas aeruginosa was examined first to determine adequacy of media preparations and growth conditions. Acceptable growth is defined as ≧2 mm wide button of cells at the bottom of each sample well, or obvious turbidity in the culture supernatant. Test wells were examined and scored as positive/negative for activity. A positive score for activity is based on complete inhibition of macroscopic growth of the test Pseudomonas aeruginosa.

[6] = Cytotoxicity (dye uptake cell viability) in the HBV assay; assay type: cell-based; settings: human, HepG2-2.2.15 cells (stable line containing HBV ayw genome), test peptide 10 micrograms per ml
[7] = test system: Streptococcus pneumoniae; test: Streptococcus pneumoniae assay; assay type: cell-based; settings: Streptococcus pneumoniae growth; peptide 10 micrograms per ml
Protocol: as §2, with “Streptococcus pneumoniae.” for “Pseudomonas aeruginosa.”, “Streptococcus pneumoniae” for “Pseudomonas aeruginosa”

[8] = test system: MRSA; test: Methicillin Resistant Staphylococcus Aureus (MRSA) assay; assay type: cell-based; settings: MRSA growth; peptide 10 micrograms per ml
Protocol: as §2, with “MRSA.” for “Pseudomonas aeruginosa.”, “MRSA” for “Pseudomonas aeruginosa”

[9] = Cytotoxicity (MTS cell viability) in the HIV-1 assay; settings: human, CEM-SS cells (uninfected drug cytotoxicity wells)
[10] = test system: MRC-5 cells; test: Cytotoxicity testing in MRC-5 cells (CellTiter 96); assay type: cell-based, human; settings: 6 days incubation
Protocol: as §1

[11] = test system: HCMV strain AD169; test: HCMV plaque reduction assay in MRC-5 cells; settings: HCMV in MRC-5 cells; peptide 10 micrograms per ml; 7-10 days

In the case of `Nc1ccn([C@@H]2CS[C@H](CO)O2)c(=O)n1` [3TC], the “% Cell viability” value [1] is reported as 95.8%.

In the case of `Cc1cn([C@H]2C[C@H](N=[N+]=[N-])[C@@H](CO)O2)c(=O)[nH]c1=O` [AZT], the “% CPE reduction in HIV-1 infected CEM-SS cells” value [2] is reported as 99% and the “% Cell viability” value [3] is reported as 97%.

For `CC[C@H](C)[C@H](NC(=O)[C@H](CCCCN)NC(=O)[C@@H]1CCCN1C(=O)[C@H](CCCNC(=N)N)NC(=O)[C@@H]1CCCN1C(=O)[C@@H]1CCCN1C(=O)[C@H](CC(C)C)NC(=O)CNC(=O)[C@@H]1CCC(=O)N1)C(=O)N1CCC[C@H]1C(=O)N1CCC[C@H]1C(=O)O` [Bradykinin potentiator B, Pyr-Gly-Leu-Pro-Pro-Arg-Pro-Lys-Ile-Pro-Pro-OH] ([pGlu]GLPPRPKIPP-OH), the viability at 144 h [4] was 100%, the “% inhibition” value [5] was 0.0% and the viability at 144 h, 10 micrograms per ml [6] was 100%. For the same compound, the “% inhibition” value [7] was 0.0%, the “% inhibition” value [8] was 0.0% and the viability at 10 micrograms per ml [9] was 100%.

In the case of `Nc1nc(O)c2ncn(COC(CO)CO)c2n1` [Ganciclovir], the “% Cell viability” value [10] is reported as 100% and the “% plaque reduction” value [11] is reported as 100%.

In the case of `CC(C)(C)NC(=O)[C@@H]1CN(Cc2cccnc2)CCN1C[C@@H](O)C[C@@H](Cc1ccccc1)C(=O)N[C@H]1c2ccccc2C[C@H]1O` [Indinavir], the “% CPE reduction in HIV-1 infected CEM-SS cells” value [2] is reported as 100% and the “% Cell viability” value [3] is reported as 93%.
